From patent US6358999B2, “Use of zinc tranexamate in the treatment of diabetes” (Hamari Chemicals, LTD, priority 2000, dated 2002)

Legend:
[1] = test system: intestinal α-glucosidase; assay: Inhibition of intestinal α-glucosidase activity of streptozocin-induced diabetic mouse; format: biochemical; conditions: for Glucose (glucose production from maltose) / Glucose (glucose production from sucrose): diabetic mouse; for Glucose (glucose production from maltose): substrate maltose; for Glucose (glucose production from sucrose): substrate sucrose
Procedure: (§1) Intestinal tract enucleated from a normal mouse was homogenized by the conventional method after removing membrane mucosa. As a substrate, sucrose, starch, maltose or isomaltose was used. The homogenate was incubated with the substrate in the presence of a test compound (Y-4 or zinc chloride) at 37° C. for 30 minutes. The reaction mixture was centrifuged and the glucose concentration in the resulting supernatant was assayed. The glucose assay was conducted calorimetrically by adding a chromogenic reagent (0.47 mol/l of orthotoluidine, 16 mol/l of acetic acid, 10 mmol/l of boric acid) to the supernatant, heating the mixture in a boiling water bath for 8 minutes and measuring the absorbance at 635 nm. α-Glucosidase activity expressed in terms of glucose concentration/mg protein was calculated.
Example 5 was repeated using intestinal tract enucleated from a diabetic mouse induced by the treatment with streptozocin instead of intestinal tract enucleated from a normal mouse to determine the inhibitory effect of Y-4 on α-glycosidase activity. The intestinal α-glucosidase activity was higher in streptozocin-induced diabetic mouse than in normal mouse. […] The inhibitory effect of Y-4 was more remarkable in the diabetic mouse than in normal mouse.

[2] = test system: intestinal α-glucosidase; assay: Inhibition of intestinal α-glucosidase activity of normal mouse (intestinal homogenate, glucose production); format: biochemical; conditions: for Glucose (glucose production from isomaltose): substrate isomaltose; for Glucose (glucose production from isomaltose) / Glucose (glucose production from maltose) / Glucose (glucose production from sucrose): 37° C., 30 minutes; for Glucose (glucose production from maltose): substrate maltose
Procedure: as §1

SMILES: [Cl-].[Cl-].[Zn+2] [ZnCl2, zinc chloride]
- Glucose (glucose production from maltose) ([1]; inhibitor 5 mM): 28.691 ± 1.222 mg/mg protein
- Glucose (glucose production from maltose) ([1]; inhibitor 10 mM): 20.698 ± 0.442 mg/mg protein
- Glucose (glucose production from maltose) ([1]; inhibitor 30 mM): 21.175 ± 0.105 mg/mg protein
- Glucose (glucose production from maltose) ([1]; inhibitor 50 mM): 21.838 ± 0.652 mg/mg protein
- Glucose (glucose production from sucrose) ([1]; inhibitor 5 mM): 13.346 ± 0.411 mg/mg protein
- Glucose (glucose production from sucrose) ([1]; inhibitor 10 mM): 6.716 ± 0.145 mg/mg protein
- Glucose (glucose production from sucrose) ([1]; inhibitor 30 mM): 5.772 ± 0.121 mg/mg protein
- Glucose (glucose production from sucrose) ([1]; inhibitor 50 mM): 4.973 ± 0.024 mg/mg protein
- Inhibition of intestinal α-glucosidase, all substrates ([1]; streptozocin-induced diabetic mouse): only weak inhibitory effects
- Inhibition of the enzymatic reaction with other substrates ([2]; starch, maltose, isomaltose): not effective
- Glucose (glucose production from isomaltose) ([2]; inhibitor 5 mM): 6.207 ± 0.230 mg/mg protein
- Glucose (glucose production from isomaltose) ([2]; inhibitor 10 mM): 5.868 ± 0.496 mg/mg protein
- Glucose (glucose production from isomaltose) ([2]; inhibitor 30 mM): 6.510 ± 0.169 mg/mg protein
- Glucose (glucose production from isomaltose) ([2]; inhibitor 50 mM): 5.421 ± 0.339 mg/mg protein
- Glucose (glucose production from maltose) ([2]; inhibitor 5 mM): 19.917 ± 0.932 mg/mg protein
- Glucose (glucose production from maltose) ([2]; inhibitor 10 mM): 18.114 ± 0.145 mg/mg protein
- Glucose (glucose production from maltose) ([2]; inhibitor 30 mM): 15.657 ± 0.036 mg/mg protein
- Glucose (glucose production from maltose) ([2]; inhibitor 50 mM): 10.442 ± 0.290 mg/mg protein
- Inhibition of the enzymatic reaction with sucrose ([2]; substrate sucrose): as effective as Y-4
- Glucose (glucose production from sucrose) ([2]; substrate sucrose, inhibitor 5 mM): 3.509 ± 0.254 mg/mg protein
- Glucose (glucose production from sucrose) ([2]; substrate sucrose, inhibitor 10 mM): 1.658 ± 0.078 mg/mg protein
- Glucose (glucose production from sucrose) ([2]; substrate sucrose, inhibitor 30 mM): 0.714 ± 0.097 mg/mg protein
- Glucose (glucose production from sucrose) ([2]; substrate sucrose, inhibitor 50 mM): 0.133 ± 0.024 mg/mg protein
